# Assays:
# TLR2 = TLR2 (Homo sapiens, UniProt O60603); assay: Activity on TLR2; format: cell-based; details: concentrations up to 25 μM
# Experimental: The half-maximal effective concentration (EC50) for VTX-2337 activation of TLR8 and TLR7 was assessed in peripheral blood mononuclear cells (PBMCs) from 15 healthy donors and also in HEK293 cells transfected with TLR8 or TLR7 and an NF-κB driven reporter gene. […] Also it was observed that VTX-2337 had no activity on TLR2, TLR3, TLR4, TLR5, TLR6, or TLR9 at concentrations up to 25 μM.
# [1] = test system: G-CSF, MCP-1, MIP-1β, TNFα; assay: Phase I clinical study: pharmacodynamic response, plasma immune mediators (MAP); format: in vivo; details: human, s.c., first dose
# Experimental: Study Procedures: VTX-2337 was administered weekly via subcutaneous injection on Days 1, 8, and 15 of a 28-day dosing cycle for two cycles. Using a modified Fibonacci dose-escalation scheme, successive cohorts received doses ranging from 0.1 mg/m^2 to 3.9 mg/m^2 of VTX-2337. Plasma samples were collected for pharmacokinetic analysis after the first dose of the first treatment cycle and for pharmacodynamic analyses after the first dose of the first and second treatment cycles.
# To evaluate the pharmacodynamic (PD) response to VTX-2337, blood was collected at 0, 4, 8, 24 hours after subcutaneous administration of the first dose of the first cycle of VTX-2337. Plasma levels of immune mediators were quantified using the human multiple analyte panel (MAP), version 1.8 (Rules Based Medicine). […] Levels of mediators in plasma collected from 9 healthy volunteers are shown for comparison to the oncology population. […]
# Chain of TLR2 (O60603 21-784, species assumed): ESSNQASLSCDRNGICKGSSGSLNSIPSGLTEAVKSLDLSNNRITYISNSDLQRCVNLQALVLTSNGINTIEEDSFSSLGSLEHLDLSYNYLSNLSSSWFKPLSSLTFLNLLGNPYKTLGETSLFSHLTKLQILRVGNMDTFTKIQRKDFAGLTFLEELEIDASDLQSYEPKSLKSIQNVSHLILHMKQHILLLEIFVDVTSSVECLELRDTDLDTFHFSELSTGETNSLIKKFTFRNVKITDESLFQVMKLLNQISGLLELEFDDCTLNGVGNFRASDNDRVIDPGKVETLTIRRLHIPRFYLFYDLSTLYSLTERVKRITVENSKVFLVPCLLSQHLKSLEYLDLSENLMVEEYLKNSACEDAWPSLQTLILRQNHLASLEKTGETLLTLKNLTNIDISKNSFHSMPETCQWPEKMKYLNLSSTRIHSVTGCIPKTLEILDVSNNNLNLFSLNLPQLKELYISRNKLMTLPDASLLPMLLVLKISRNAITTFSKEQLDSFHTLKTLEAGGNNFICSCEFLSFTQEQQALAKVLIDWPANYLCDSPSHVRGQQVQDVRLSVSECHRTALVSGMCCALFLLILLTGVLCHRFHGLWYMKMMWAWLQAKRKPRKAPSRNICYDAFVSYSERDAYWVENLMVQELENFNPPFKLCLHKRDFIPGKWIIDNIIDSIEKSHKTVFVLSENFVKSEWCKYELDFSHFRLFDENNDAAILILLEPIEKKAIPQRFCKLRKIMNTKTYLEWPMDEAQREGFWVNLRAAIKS
smiles,measurement,setting,value
"CCCN(CCC)C(=O)C1=Cc2ccc(-c3ccc(C(=O)N4CCCC4)cc3)cc2N=C(N)C1 [VTX-2337, 2-amino-N,N-dipropyl-8-(4-(pyrrolidine-1-carbonyl)phenyl)-3H-benzo[b]azepine-4-carboxamide]",activity on TLR2,TLR2,no activity
same,G-CSF plasma level,"[1]; Cohort 1 (0.1 mg/m^2), 0 Hr",9.7 ± 1.9 pg/mL
same,MCP-1 plasma level,"[1]; Cohort 1 (0.1 mg/m^2), 0 Hr",247 ± 62.7 pg/mL
same,MIP-1β plasma level,"[1]; Cohort 1 (0.1 mg/m^2), 0 Hr",201 ± 73.8 pg/mL
same,TNFα plasma level,"[1]; Cohort 1 (0.1 mg/m^2), 0 Hr",11.4 ± 4.4 pg/mL
same,G-CSF plasma level,"[1]; Cohort 1 (0.1 mg/m^2), 4 Hr",8.6 ± 1.6 pg/mL
same,MCP-1 plasma level,"[1]; Cohort 1 (0.1 mg/m^2), 4 Hr",223 ± 58.8 pg/mL
same,MIP-1β plasma level,"[1]; Cohort 1 (0.1 mg/m^2), 4 Hr",196 ± 71.9 pg/mL
same,TNFα plasma level,"[1]; Cohort 1 (0.1 mg/m^2), 4 Hr",10.5 ± 2.6 pg/mL
same,G-CSF plasma level,"[1]; Cohort 1 (0.1 mg/m^2), 8 Hr",11.9 ± 4.4 pg/mL
same,MCP-1 plasma level,"[1]; Cohort 1 (0.1 mg/m^2), 8 Hr",280 ± 97.0 pg/mL
same,MIP-1β plasma level,"[1]; Cohort 1 (0.1 mg/m^2), 8 Hr",204 ± 74.0 pg/mL
same,TNFα plasma level,"[1]; Cohort 1 (0.1 mg/m^2), 8 Hr",10.3 ± 4.0 pg/mL
same,G-CSF plasma level,"[1]; Cohort 1 (0.1 mg/m^2), 24 Hr",9.2 ± 2.5 pg/mL
same,MCP-1 plasma level,"[1]; Cohort 1 (0.1 mg/m^2), 24 Hr",250 ± 85.0 pg/mL
same,MIP-1β plasma level,"[1]; Cohort 1 (0.1 mg/m^2), 24 Hr",207 ± 73.8 pg/mL
same,TNFα plasma level,"[1]; Cohort 1 (0.1 mg/m^2), 24 Hr",10.2 ± 3.6 pg/mL
same,G-CSF plasma level,"[1]; Cohort 2 (0.2 mg/m^2), 0 Hr",7.8 ± 3.2 pg/mL
same,MCP-1 plasma level,"[1]; Cohort 2 (0.2 mg/m^2), 0 Hr",245 ± 167 pg/mL
same,MIP-1β plasma level,"[1]; Cohort 2 (0.2 mg/m^2), 0 Hr",230 ± 84.0 pg/mL
same,TNFα plasma level,"[1]; Cohort 2 (0.2 mg/m^2), 0 Hr",9.7 ± 5.7 pg/mL
same,G-CSF plasma level,"[1]; Cohort 2 (0.2 mg/m^2), 4 Hr",11.5 ± 7.8 pg/mL
same,MCP-1 plasma level,"[1]; Cohort 2 (0.2 mg/m^2), 4 Hr",235 ± 84.6 pg/mL
same,MIP-1β plasma level,"[1]; Cohort 2 (0.2 mg/m^2), 4 Hr",239 ± 74.0 pg/mL
same,TNFα plasma level,"[1]; Cohort 2 (0.2 mg/m^2), 4 Hr",10.8 ± 5.0 pg/mL
same,G-CSF plasma level,"[1]; Cohort 2 (0.2 mg/m^2), 8 Hr",19.0 ± 16.5 pg/mL
same,MCP-1 plasma level,"[1]; Cohort 2 (0.2 mg/m^2), 8 Hr",298 ± 100 pg/mL
same,MIP-1β plasma level,"[1]; Cohort 2 (0.2 mg/m^2), 8 Hr",247 ± 84.7 pg/mL
same,TNFα plasma level,"[1]; Cohort 2 (0.2 mg/m^2), 8 Hr",10.5 ± 6.0 pg/mL
same,G-CSF plasma level,"[1]; Cohort 2 (0.2 mg/m^2), 24 Hr",15.4 ± 9.0 pg/mL
same,MCP-1 plasma level,"[1]; Cohort 2 (0.2 mg/m^2), 24 Hr",301 ± 159 pg/mL
same,MIP-1β plasma level,"[1]; Cohort 2 (0.2 mg/m^2), 24 Hr",280 ± 115 pg/mL
same,TNFα plasma level,"[1]; Cohort 2 (0.2 mg/m^2), 24 Hr",12.4 ± 6.1 pg/mL
same,G-CSF plasma level,"[1]; Cohort 3 (0.4 mg/m^2), 0 Hr",12.7 ± 6.0 pg/mL
same,MCP-1 plasma level,"[1]; Cohort 3 (0.4 mg/m^2), 0 Hr",129 ± 30.0 pg/mL
same,MIP-1β plasma level,"[1]; Cohort 3 (0.4 mg/m^2), 0 Hr",172 ± 59.0 pg/mL
same,TNFα plasma level,"[1]; Cohort 3 (0.4 mg/m^2), 0 Hr",9.0 ± 4.9 pg/mL
same,G-CSF plasma level,"[1]; Cohort 3 (0.4 mg/m^2), 4 Hr",9.5 ± 0.9 pg/mL
same,MCP-1 plasma level,"[1]; Cohort 3 (0.4 mg/m^2), 4 Hr",137 ± 30.7 pg/mL
same,MIP-1β plasma level,"[1]; Cohort 3 (0.4 mg/m^2), 4 Hr",215 ± 65.6 pg/mL
same,TNFα plasma level,"[1]; Cohort 3 (0.4 mg/m^2), 4 Hr",10.8 ± 3.3 pg/mL
same,G-CSF plasma level,"[1]; Cohort 3 (0.4 mg/m^2), 8 Hr",63.8 ± 60.1 pg/mL
same,MCP-1 plasma level,"[1]; Cohort 3 (0.4 mg/m^2), 8 Hr",251 ± 87.9 pg/mL
same,MIP-1β plasma level,"[1]; Cohort 3 (0.4 mg/m^2), 8 Hr",213 ± 88.8 pg/mL
same,TNFα plasma level,"[1]; Cohort 3 (0.4 mg/m^2), 8 Hr",9.6 ± 3.1 pg/mL
same,G-CSF plasma level,"[1]; Cohort 3 (0.4 mg/m^2), 24 Hr",15.8 ± 3.5 pg/mL
same,MCP-1 plasma level,"[1]; Cohort 3 (0.4 mg/m^2), 24 Hr",99.5 ± 6.9 pg/mL
same,MIP-1β plasma level,"[1]; Cohort 3 (0.4 mg/m^2), 24 Hr",173 ± 67.4 pg/mL
same,TNFα plasma level,"[1]; Cohort 3 (0.4 mg/m^2), 24 Hr",10.0 ± 2.9 pg/mL
same,G-CSF plasma level,"[1]; Cohort 4 (0.8 mg/m^2), 0 Hr",13.2 ± 8.9 pg/mL
same,MCP-1 plasma level,"[1]; Cohort 4 (0.8 mg/m^2), 0 Hr",260 ± 150 pg/mL
same,MIP-1β plasma level,"[1]; Cohort 4 (0.8 mg/m^2), 0 Hr",165 ± 63.9 pg/mL
same,TNFα plasma level,"[1]; Cohort 4 (0.8 mg/m^2), 0 Hr",16.7 ± 12.6 pg/mL
same,G-CSF plasma level,"[1]; Cohort 4 (0.8 mg/m^2), 4 Hr",49.8 ± 80.3 pg/mL
same,MCP-1 plasma level,"[1]; Cohort 4 (0.8 mg/m^2), 4 Hr",1037 ± 1920 pg/mL
same,MIP-1β plasma level,"[1]; Cohort 4 (0.8 mg/m^2), 4 Hr",450 ± 641 pg/mL
same,TNFα plasma level,"[1]; Cohort 4 (0.8 mg/m^2), 4 Hr",22.0 ± 14.6 pg/mL
same,G-CSF plasma level,"[1]; Cohort 4 (0.8 mg/m^2), 8 Hr",137 ± 124 pg/mL
same,MCP-1 plasma level,"[1]; Cohort 4 (0.8 mg/m^2), 8 Hr",673 ± 386 pg/mL
same,MIP-1β plasma level,"[1]; Cohort 4 (0.8 mg/m^2), 8 Hr",287 ± 177 pg/mL
same,TNFα plasma level,"[1]; Cohort 4 (0.8 mg/m^2), 8 Hr",19.0 ± 10.6 pg/mL
same,G-CSF plasma level,"[1]; Cohort 4 (0.8 mg/m^2), 24 Hr",35.7 ± 14.7 pg/mL
same,MCP-1 plasma level,"[1]; Cohort 4 (0.8 mg/m^2), 24 Hr",267 ± 104 pg/mL
same,MIP-1β plasma level,"[1]; Cohort 4 (0.8 mg/m^2), 24 Hr",183 ± 55.9 pg/mL

# Reference: patent US20120219615A1, “Therapeutic Use of a TLR Agonist and Combination Therapy” (The Trustees of the University of Pennsylvania, priority 2010, published 2012)
